In ChEMBL document CHEMBL3393036, “Tetra-substituted pyridinylimidazoles as dual inhibitors of p38α mitogen-activated protein kinase and c-Jun N-terminal kinase 3 for potential treatment of neurodegenerative diseases” (J Med Chem, 2015) one finds inhibition, Ratio IC50 and IC50 data, which are given here for five compounds.

The target in assay [1] is TRAF2 and NCK-interacting protein kinase (Homo sapiens) (UniProt Q9UKE5). The assay can be described thus: Inhibition of TNIK (unknown origin) at 5.5 uM by Caliper Mobility Shift Assay.
The target of assay [2] is ALK tyrosine kinase receptor (Homo sapiens) (UniProt Q9UM73). The assay can be described thus: Inhibition of ALK (unknown origin) at 5.5 uM by Caliper Mobility Shift Assay.
Sequence of ALK tyrosine kinase receptor (Homo sapiens) (Q9UM73 19-1620 limits assumed): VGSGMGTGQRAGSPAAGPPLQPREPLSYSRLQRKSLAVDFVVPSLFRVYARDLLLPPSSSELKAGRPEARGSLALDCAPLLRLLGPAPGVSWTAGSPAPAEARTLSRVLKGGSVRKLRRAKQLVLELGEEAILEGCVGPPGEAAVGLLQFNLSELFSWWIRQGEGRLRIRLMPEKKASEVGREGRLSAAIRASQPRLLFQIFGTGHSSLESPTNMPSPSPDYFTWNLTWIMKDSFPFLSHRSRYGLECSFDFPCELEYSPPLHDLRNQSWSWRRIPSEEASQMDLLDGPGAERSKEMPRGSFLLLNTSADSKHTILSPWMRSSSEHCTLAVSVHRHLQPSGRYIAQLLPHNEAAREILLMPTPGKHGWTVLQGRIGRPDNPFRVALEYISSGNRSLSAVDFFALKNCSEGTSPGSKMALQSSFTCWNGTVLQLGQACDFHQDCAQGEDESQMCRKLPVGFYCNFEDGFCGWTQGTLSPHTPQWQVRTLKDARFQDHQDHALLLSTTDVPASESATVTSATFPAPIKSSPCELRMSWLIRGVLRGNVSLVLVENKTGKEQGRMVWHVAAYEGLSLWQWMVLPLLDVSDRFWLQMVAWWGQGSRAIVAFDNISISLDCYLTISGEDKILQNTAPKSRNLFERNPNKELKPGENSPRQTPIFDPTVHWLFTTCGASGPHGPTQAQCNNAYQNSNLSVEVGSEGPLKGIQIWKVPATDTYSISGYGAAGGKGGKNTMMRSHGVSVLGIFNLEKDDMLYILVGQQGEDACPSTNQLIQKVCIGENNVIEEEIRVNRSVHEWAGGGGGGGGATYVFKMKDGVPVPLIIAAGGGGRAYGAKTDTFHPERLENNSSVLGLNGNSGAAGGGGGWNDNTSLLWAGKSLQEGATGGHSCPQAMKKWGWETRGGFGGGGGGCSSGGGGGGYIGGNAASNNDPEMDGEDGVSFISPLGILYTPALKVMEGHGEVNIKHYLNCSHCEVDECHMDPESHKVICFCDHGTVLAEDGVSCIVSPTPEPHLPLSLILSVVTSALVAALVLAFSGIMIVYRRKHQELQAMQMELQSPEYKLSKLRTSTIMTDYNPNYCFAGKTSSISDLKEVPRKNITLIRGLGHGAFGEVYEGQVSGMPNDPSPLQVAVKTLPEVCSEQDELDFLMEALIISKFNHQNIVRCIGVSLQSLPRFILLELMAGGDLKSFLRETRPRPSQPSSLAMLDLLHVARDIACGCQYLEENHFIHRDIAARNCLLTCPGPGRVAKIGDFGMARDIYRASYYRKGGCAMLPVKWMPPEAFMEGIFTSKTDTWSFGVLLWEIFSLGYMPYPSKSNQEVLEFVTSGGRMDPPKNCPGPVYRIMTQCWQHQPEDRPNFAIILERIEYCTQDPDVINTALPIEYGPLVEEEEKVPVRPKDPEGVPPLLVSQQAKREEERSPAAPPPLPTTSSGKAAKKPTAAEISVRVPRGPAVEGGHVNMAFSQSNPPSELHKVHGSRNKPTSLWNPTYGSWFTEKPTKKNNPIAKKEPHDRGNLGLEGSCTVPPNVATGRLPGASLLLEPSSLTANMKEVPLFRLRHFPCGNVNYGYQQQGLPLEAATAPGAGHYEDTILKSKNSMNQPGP
Assay [3] deals with T1, MAP kinase-activated protein kinase 5 (Homo sapiens) (UniProt Q8IW41).
T1 sequence (whole entry): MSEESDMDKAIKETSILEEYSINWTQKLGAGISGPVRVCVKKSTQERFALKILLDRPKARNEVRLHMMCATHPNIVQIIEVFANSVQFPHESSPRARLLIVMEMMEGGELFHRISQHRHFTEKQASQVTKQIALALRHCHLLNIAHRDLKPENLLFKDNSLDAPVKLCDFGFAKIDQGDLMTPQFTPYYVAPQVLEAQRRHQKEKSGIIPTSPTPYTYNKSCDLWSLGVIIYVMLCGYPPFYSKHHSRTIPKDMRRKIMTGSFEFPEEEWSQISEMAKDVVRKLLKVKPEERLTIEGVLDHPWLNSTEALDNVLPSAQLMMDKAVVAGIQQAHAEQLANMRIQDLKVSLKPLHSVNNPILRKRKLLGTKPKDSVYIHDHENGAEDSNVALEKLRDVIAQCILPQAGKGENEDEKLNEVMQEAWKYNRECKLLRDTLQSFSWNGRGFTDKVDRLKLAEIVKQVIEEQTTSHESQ
The assay can be described thus: Inhibition of MAPKAPK5 (MK5) (unknown origin) at 5.5 uM by Caliper Mobility Shift Assay.

For a further assay, the species on record is Homo sapiens. Kind of assay: Selectivity ratio of IC50 for JNK3 (unknown origin) to IC50 for p38alpha (unknown origin).
Assay [4] concerns the target Serine/threonine-protein kinase WNK1 (Homo sapiens) (UniProt Q9H4A3). Kind of assay: Inhibition of WNK1 (unknown origin) at 5.5 uM by Caliper Mobility Shift Assay.
In assay [5] the target is RAC-alpha serine/threonine-protein kinase (Homo sapiens) (UniProt P31749). The assay can be described thus: Inhibition of AKT1 (PKBa) (unknown origin) at 5.5 uM by Caliper Mobility Shift Assay.
Sequence of RAC-alpha serine/threonine-protein kinase (Homo sapiens) (P31749 whole entry): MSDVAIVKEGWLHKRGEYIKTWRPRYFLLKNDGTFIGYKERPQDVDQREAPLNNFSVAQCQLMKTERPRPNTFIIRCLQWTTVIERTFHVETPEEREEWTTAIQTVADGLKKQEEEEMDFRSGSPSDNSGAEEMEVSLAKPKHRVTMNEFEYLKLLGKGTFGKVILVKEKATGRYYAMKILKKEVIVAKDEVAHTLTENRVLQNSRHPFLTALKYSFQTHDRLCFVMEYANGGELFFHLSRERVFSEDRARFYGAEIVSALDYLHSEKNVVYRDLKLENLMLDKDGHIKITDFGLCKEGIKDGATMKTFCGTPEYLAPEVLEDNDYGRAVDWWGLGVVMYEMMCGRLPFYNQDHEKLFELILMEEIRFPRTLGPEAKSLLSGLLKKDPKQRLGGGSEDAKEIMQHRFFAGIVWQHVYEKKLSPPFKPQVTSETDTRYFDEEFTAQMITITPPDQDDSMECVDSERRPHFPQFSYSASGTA
For assay [6], the target named is Proto-oncogene tyrosine-protein kinase Src (Homo sapiens) (UniProt P12931). Kind of assay: Inhibition of cSRC (unknown origin) at 5.5 uM by Caliper Mobility Shift Assay.
Assay [7] has as its target Mitogen-activated protein kinase 14 (Homo sapiens, UniProt Q16539). Kind of assay: Inhibition of p38alpha (unknown origin) assessed as phosphorylation of ATF-2 by ELISA. For orientation: In an ELISA, binding on a coated surface is turned into a signal by an enzyme label.
In assay [8] the target is Tyrosine-protein kinase Lck (Homo sapiens) (UniProt P06239). Kind of assay: Inhibition of LCK (unknown origin) at 5.5 uM by Caliper Mobility Shift Assay.
Sequence of Tyrosine-protein kinase Lck (Homo sapiens) (P06239 2-509 limits assumed): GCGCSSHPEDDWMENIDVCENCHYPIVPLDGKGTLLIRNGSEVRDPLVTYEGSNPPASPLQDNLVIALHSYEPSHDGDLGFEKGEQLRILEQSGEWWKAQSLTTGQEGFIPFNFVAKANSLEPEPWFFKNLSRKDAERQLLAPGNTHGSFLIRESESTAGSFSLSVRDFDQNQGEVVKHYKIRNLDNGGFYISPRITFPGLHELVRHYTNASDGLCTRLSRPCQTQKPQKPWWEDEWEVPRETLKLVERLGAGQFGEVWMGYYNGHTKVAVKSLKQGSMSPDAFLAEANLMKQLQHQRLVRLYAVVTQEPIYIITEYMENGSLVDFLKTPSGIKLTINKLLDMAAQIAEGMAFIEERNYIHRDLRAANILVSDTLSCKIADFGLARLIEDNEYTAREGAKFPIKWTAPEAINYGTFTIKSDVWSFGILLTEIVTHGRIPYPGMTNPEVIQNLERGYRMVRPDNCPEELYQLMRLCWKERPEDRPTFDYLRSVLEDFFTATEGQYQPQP
The target in assay [9] is Mitogen-activated protein kinase 9 (Homo sapiens) (UniProt P45984). The assay can be described thus: Inhibition of JNK2 (unknown origin) at 5.5 uM by Caliper Mobility Shift Assay.
The target in assay [10] is Tyrosine-protein kinase CSK (Homo sapiens) (UniProt P41240). Kind of assay: Inhibition of CSK (unknown origin) at 5.5 uM by Caliper Mobility Shift Assay.
For assay [11], the target named is Hepatocyte growth factor receptor (Homo sapiens) (UniProt P08581). Kind of assay: Inhibition of MET (unknown origin) at 5.5 uM by Caliper Mobility Shift Assay.
Sequence of Hepatocyte growth factor receptor (Homo sapiens) (P08581 whole entry): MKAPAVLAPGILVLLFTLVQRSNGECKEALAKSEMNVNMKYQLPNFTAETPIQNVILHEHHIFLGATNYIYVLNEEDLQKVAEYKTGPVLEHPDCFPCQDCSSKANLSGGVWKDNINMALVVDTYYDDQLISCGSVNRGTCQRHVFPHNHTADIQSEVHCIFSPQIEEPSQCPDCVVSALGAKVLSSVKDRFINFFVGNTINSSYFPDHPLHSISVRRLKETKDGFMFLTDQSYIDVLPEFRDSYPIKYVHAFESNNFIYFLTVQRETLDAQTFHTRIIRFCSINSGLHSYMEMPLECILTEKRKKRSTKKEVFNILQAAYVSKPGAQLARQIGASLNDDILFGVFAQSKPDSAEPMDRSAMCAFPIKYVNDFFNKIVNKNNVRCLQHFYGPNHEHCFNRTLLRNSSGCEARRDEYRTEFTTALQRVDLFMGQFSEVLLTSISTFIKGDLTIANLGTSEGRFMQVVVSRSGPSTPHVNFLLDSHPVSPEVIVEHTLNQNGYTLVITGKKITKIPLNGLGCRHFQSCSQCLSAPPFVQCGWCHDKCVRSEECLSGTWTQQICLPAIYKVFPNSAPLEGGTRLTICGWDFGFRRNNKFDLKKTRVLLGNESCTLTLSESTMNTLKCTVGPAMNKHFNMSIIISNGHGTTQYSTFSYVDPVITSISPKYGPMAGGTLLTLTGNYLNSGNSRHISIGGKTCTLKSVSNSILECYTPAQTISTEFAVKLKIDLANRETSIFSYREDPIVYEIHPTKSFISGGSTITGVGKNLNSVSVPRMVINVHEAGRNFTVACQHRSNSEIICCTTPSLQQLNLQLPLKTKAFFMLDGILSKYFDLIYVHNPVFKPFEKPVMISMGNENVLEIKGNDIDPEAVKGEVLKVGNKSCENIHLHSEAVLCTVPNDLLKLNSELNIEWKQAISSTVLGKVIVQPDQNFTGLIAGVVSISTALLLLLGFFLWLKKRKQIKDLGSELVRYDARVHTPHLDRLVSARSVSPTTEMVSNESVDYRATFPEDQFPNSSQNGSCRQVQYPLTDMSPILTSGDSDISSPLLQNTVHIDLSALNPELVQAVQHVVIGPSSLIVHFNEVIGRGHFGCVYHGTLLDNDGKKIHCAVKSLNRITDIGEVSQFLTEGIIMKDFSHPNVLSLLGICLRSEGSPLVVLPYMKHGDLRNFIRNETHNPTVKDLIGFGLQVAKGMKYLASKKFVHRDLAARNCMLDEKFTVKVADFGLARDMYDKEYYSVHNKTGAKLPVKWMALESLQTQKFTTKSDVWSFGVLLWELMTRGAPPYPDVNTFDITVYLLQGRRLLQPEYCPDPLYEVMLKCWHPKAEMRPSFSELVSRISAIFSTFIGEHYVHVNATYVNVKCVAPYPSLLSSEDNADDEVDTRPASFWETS
For assay [12], the target named is Calcium/calmodulin-dependent protein kinase type II subunit beta (Homo sapiens) (UniProt Q13554). Kind of assay: Inhibition of CAMK2 (unknown origin) at 5.5 uM by Caliper Mobility Shift Assay.
The target of assay [13] is T2, Serine/threonine-protein kinase 17B (Homo sapiens) (UniProt O94768).
T2 sequence (whole entry): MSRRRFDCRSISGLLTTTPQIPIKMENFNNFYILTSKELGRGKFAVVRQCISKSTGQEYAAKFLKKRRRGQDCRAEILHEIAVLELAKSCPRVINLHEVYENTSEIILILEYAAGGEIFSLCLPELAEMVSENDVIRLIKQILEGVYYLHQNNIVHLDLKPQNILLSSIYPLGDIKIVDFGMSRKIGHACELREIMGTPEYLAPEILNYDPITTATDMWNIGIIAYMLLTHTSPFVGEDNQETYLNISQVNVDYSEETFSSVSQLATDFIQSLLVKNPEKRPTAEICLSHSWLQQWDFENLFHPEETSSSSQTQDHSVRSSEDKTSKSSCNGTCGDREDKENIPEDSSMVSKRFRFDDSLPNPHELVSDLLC
The assay can be described thus: Inhibition of STK17B (unknown origin) at 5.5 uM by Caliper Mobility Shift Assay.

The target of assay [14] is Epidermal growth factor receptor (Homo sapiens) (UniProt P00533). Kind of assay: Inhibition of EGFR (HER1) (unknown origin) at 5.5 uM by Caliper Mobility Shift Assay.
The target in assay [15] is Ribosomal protein S6 kinase beta-2 (Homo sapiens) (UniProt Q9UBS0). Kind of assay: Inhibition of S6K (unknown origin) at 5.5 uM by Caliper Mobility Shift Assay.
Sequence of Ribosomal protein S6 kinase beta-2 (Homo sapiens) (Q9UBS0 whole entry): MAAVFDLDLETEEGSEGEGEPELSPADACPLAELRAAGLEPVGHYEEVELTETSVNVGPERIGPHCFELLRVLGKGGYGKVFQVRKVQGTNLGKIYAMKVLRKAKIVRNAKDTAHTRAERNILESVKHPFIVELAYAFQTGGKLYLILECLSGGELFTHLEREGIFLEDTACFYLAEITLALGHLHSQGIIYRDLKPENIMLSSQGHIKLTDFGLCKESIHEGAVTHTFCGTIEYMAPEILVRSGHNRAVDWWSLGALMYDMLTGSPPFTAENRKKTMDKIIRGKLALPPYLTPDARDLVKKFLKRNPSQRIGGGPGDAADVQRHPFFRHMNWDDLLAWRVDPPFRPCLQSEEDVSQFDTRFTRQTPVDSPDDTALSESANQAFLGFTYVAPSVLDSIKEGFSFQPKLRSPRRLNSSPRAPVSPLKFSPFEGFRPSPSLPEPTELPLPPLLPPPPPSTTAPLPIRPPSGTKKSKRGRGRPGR
The target in assay [16] is Cyclin-dependent kinase 4/cyclin D1 (Homo sapiens) (UniProt P11802+P24385). The assay can be described thus: Inhibition of CDK4D1 (unknown origin) at 5.5 uM by Caliper Mobility Shift Assay. Format: protein-complex assay.
Assay [17] has as its target Fibroblast growth factor receptor 3 (Homo sapiens) (UniProt P22607). The assay can be described thus: Inhibition of FGFR3 (unknown origin) at 5.5 uM by Caliper Mobility Shift Assay.
Assay [18] concerns the target MAP kinase-activated protein kinase 2 (Homo sapiens) (UniProt P49137). Kind of assay: Inhibition of MK2 (unknown origin) at 5.5 uM by Caliper Mobility Shift Assay.
Assay [19] has as its target T3, Serine/threonine-protein kinase 4 (Homo sapiens) (UniProt Q13043).
T3 sequence (whole entry): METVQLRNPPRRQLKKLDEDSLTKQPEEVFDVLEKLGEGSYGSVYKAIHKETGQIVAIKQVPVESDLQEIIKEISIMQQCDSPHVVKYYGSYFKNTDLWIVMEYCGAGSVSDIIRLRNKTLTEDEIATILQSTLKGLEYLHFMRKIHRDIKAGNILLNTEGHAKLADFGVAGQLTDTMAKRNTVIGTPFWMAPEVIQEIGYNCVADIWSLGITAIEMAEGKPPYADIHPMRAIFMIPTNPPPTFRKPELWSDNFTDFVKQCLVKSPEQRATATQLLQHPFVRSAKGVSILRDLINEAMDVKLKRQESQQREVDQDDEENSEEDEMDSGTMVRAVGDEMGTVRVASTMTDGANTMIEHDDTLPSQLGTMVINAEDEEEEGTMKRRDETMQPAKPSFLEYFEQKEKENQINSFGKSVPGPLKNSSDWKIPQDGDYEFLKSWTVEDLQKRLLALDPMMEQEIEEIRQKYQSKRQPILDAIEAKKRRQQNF
The assay can be described thus: Inhibition of STK4 (unknown origin) at 5.5 uM by Caliper Mobility Shift Assay.

Some results are limits rather than exact numbers.

Sequence of Mitogen-activated protein kinase 14 (Q16539 whole entry): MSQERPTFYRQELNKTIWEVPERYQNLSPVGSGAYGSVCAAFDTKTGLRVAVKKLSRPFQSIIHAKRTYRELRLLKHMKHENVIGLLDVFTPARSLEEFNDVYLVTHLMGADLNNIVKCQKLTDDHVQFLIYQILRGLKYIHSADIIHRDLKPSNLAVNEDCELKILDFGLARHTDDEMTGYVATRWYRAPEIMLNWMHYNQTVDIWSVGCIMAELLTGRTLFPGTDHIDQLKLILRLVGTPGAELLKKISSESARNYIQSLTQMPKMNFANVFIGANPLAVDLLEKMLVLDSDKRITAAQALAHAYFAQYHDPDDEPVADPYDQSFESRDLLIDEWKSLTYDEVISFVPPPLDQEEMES

As for `CC(=O)Nc1cc(-c2c(-c3ccc(F)cc3)nc(S/C=C\C(=O)O)n2CC2CCCO2)ccn1` (racemic), the inhibition in assay [1], in [2], in [3], in assay [4], in assay [5] and in assay [6] was below 50% throughout. Moreover, the inhibition in assay [8], in assay [9], in assay [10], in assay [11], in [12] and in assay [13] was below 50% in each case. The inhibition in [14], in assay [15], in assay [16], in [17], in assay [18] and in [19] was below 50% throughout. Further, the Ratio IC50 in the assay listed under Homo sapiens was 0.2. The IC50 in [7] is 223 nM.
For `CC(=O)Nc1cc(-c2c(-c3ccc(F)cc3)nc(S/C=C\C(=O)O)n2C2CC2)ccn1`, the inhibition in assay [1], in assay [2], in assay [3], in assay [4], in [5] and in assay [6] was below 50% in each case. Further, the inhibition in assay [8], in [9], in [10], in [11], in assay [12] and in assay [13] was below 50% in each case. Further, the inhibition in assay [14], in [15], in [16], in [17], in assay [18] and in assay [19] was below 50% each time. For the same compound, the Ratio IC50 in the assay listed under Homo sapiens is 0.7. Besides, the half-inhibitory concentration (IC50) in assay [7] was determined as 123 nM.
Regarding `COC(Cn1c(SC2CCC(C(=O)O)CC2O)nc(-c2ccc(F)cc2)c1-c1ccnc(NC(C)=O)c1)OC` (stereo not given), the inhibition in assay [1], in assay [2], in assay [3], in [4], in assay [5] and in [6] was below 50% each time. The inhibition in assay [8], in [9], in assay [10], in assay [11], in assay [12] and in assay [13] was below 50% throughout. Besides, the inhibition in assay [14], in assay [15], in assay [16], in assay [17], in [18] and in assay [19] was below 50% in each case. For the same compound, the Ratio IC50 in the assay listed under Homo sapiens turned out to be 14.9. Moreover, in assay [7], the IC50 turned out to be 135 nM.
As to `CC(=O)Nc1cc(-c2c(-c3ccc(F)cc3)nc(Sc3cccc(I)n3)n2C2CCCCC2)ccn1`, the inhibition in assay [1], in [2], in assay [3], in [4], in assay [5] and in assay [6] was below 50% in each case. The inhibition in assay [8], in assay [9], in [10], in [11], in [12] and in assay [13] was below 50% throughout. Besides, the inhibition in assay [14], in [15], in assay [16], in assay [17], in [18] and in assay [19] was below 50% each time. Moreover, in the assay listed under Homo sapiens, the Ratio IC50 was 4.3. For the same compound, the 50% inhibitory concentration (IC50) in assay [7] was found to be 356 nM.
For the compound `CC(=O)Nc1cc(-c2c(-c3ccc(F)cc3)nc(S/C=C\C(=O)O)n2C2CCCCC2)ccn1`, the inhibition in [1], in assay [2], in [3], in [4], in assay [5] and in [6] was below 50% in each case. Besides, the inhibition in assay [8], in assay [9], in assay [10], in assay [11], in [12] and in assay [13] was below 50% each time. In addition, the inhibition in assay [14], in [15], in assay [16], in assay [17], in [18] and in assay [19] was below 50% in each case. Further, the Ratio IC50 in the assay filed under Homo sapiens was determined as 0.8. For the same compound, the IC50 in assay [7] stood at 165 nM.

In general, inhibition refers to the change of the read-out against control, counted positive when it falls. A word on the IC50: it is the concentration needed to halve the response being measured.
